Assay results from US20150315202A1, “CHLORIN DERIVATIVE USEFUL IN PHOTODYNAMIC THERAPY AND DIAGNOSIS” (RMW CHO GROUP LIMITED, priority 2012, published 2015).
Entries after “also recorded” stand apart in the source; their conditions may differ. Like-named read-outs stand apart in the source and are kept apart here.

Legend:
[1] = system: S180 sarcoma; assay: Photodynamic therapy study with mice with subcutaneous S180 sarcoma; format: in vivo, Kunming mice; conditions: for Pathological changes of tumour tissues (HE staining): 24 hours after the treatment; for Living tumour cells versus control group D (FCM) / Proportions of apoptotic and necrotic tumour cells versus control group D (FCM): 24 hours after treatments; for Mean tumour volume versus control group D: 21 days after the treatments, P<0.05; for Tumour appearance after treatment (eschars): after treatments; for Sizes of tumours versus control group D: six days after the treatments; for Tumour inhibition rate: tail vein: Duteroporphyrin 10 mg/kg, chlorin e4 sodium 20 mg/kg, 5-ALA 100 mg/kg, laser 20 minutes, 180 J/cm^2
Procedure: In this experiment the effects of photodynamic therapy mediated by three different photosensitizers, namely Duteroporphyrin, chlorin e4 sodium and 5-ALA, on mouse S180 sarcoma were observed. Duteroporphyrin and 5-ALA are porphyrin derivatives.
40 Kunming mice with well grown subcutaneous S180 sarcoma were randomly divided into four groups: (A) Duteroporphyrin group (10 mg/kg), (B) chlorin e4 sodium group (20 mg/kg), (C) 5-ALA group (100 mg/kg) and (D) blank control group. The mice in groups A and B were subjected to irradiation 8-10 hours after tail vein injection of the photo sensitizers, while the mice in group C were subjected to irradiation 3 hours after tail vein injection of the photosensitizer. A laser with a wavelength of 630 nm was used for groups A and C, while a duel-frequency laser with wavelengths of 660 nm and 760 nm was used for group B. The local tumour sites were irradiated vertically, with the diameter of the laser spots being 1.2-1.5 cm. The whole tumour and 3-5 mm of normal tissue around the tumour were covered by the laser. The lasers were applied to groups A, B and C for 20 minutes, with a power density of 150 mW/cm^2 and an energy density of 180 J/cm^2. The mice in control group D were not subjected to irradiation.

[2] = air-saturated water and ethanol; literature value of the reference; cited from earlier work
[3] = literature value of the reference, cited from earlier work
[4] = system: indomethacin-induced gastric lesions; conditions: rats; cited from earlier work
[5] = system: TAA- or CCl4-induced acute liver injuries; conditions: mice; cited from earlier work
[6] = system: advanced non-small cell lung cancer; assay: Clinical study with patients suffering from advanced non-small cell lung cancer; format: in vivo, human
Procedure: Through pathology or cytology diagnosis, 66 advanced non-small cell lung cancer patients were selected and randomly divided into two groups. Group A had 32 patients who were treated with chlorin e4 sodium. Group B had 34 patients who were treated with both chemotherapy and radiotherapy.
For group A, chlorin e4 sodium was administered at a dosage of 2 mg per kilogram of body weight, with two thirds administered by inhalation and one third administered orally. After the irradiation target(s) had been determined, an optical fibre for laser treatment purposes was guided into the lung tumor(s) via an interstitial procedure. Irradiation light intensity was 200 J/cm^2, irradiation power was 1,000 mW, and irradiation lasted for eight to ten minutes. Laser irradiation into the tumor was two to five centimeters in depth. Irradiation was either performed phase by phase (sub-paragraph treatment) based on tumor size or performed repeatedly.
For group B, for the radiotherapy, a 15 MV X-ray radiation therapy irradiation field covered primary lung tumor lesion(s) and mediastinal lymphatic drainage area, with a dosage of 65-70 Gy, administered on every first day in a week of radiotherapy. For the chemotherapy, 20 mg cisplatin was administered by intravenous application.

[7] = treatment of various human ailments; cited from earlier work
[8] = group A (32 patients): chlorin e4 sodium 2 mg/kg inhalation and oral + interstitial laser, group B (34 patients): cisplatin 20 mg iv + radiotherapy

Compound | Pathological changes of tumour tissues (HE staining) [1] | Living tumour cells versus control group D (FCM) [1] | Proportions of apoptotic and necrotic tumour cells versus control group D (FCM) [1] | Mean tumour volume versus control group D [1] | Tumour appearance after treatment (eschars) [1] | Sizes of tumours versus control group D [1] | Tumour inhibition rate [1] [%] | also measured
NCC(=O)CCC(=O)O [5-ALA] | a wide range of tumour necrosis, tumour vascular disruption and neutrophil infiltration | obviously fewer | a lot higher | statistically significantly smaller | thinner and brownish red in colour | no obvious difference | 37.2 | Recovery of skins and fur ([1]; after the eschars had fallen off): fully recovered; also recorded: fastest in skin repairing
CC1=Cc2cc3[nH]c(cc4nc(cc5[nH]c(cc1n2)cc5C)C(C)=C4CCC(=O)O)c(CCC(=O)O)c3C [Duteroporphyrin] | a wide range of tumour necrosis, tumour vascular disruption and neutrophil infiltration | obviously fewer | a lot higher | statistically significantly smaller | Black eschars | no obvious difference | 62.5 | Recovery of skins and fur ([1]; mouse, in vivo): fully recovered
O=S(=O)(O)c1ccc(-c2c3nc(c(-c4ccc(S(=O)(=O)O)cc4)c4ccc([nH]4)c(-c4ccc(S(=O)(=O)O)cc4)c4nc(c(-c5ccc(S(=O)(=O)O)cc5)c5ccc2[nH]5)C=C4)C=C3)cc1 [TPPS, m-tetrakis(p-sulfonatophenyl)porphine] |  |  |  |  |  |  |  | Fluorescence quantum yield [2]: 0.08; Quantum yield of singlet oxygen photogeneration ([3]; ethanol and detergent containing water): 0.7; Quantum yield of singlet oxygen photogeneration ([3]; water): 0.6
C=Cc1c(C)c2cc3nc(c(C)c4[nH]c(cc5nc(cc1[nH]2)C(C)=C5CC)c(C)c4C(=O)O)[C@@H](CCC(=O)O)[C@@H]3C [chlorin e4] |  |  |  |  |  |  |  | Effect against indomethacin-induced gastric lesions [4]: protective effect; Effect against TAA- or CCl4-induced acute liver injuries [5]: protective effect
N.N.[Cl][Pt][Cl] [cisplatin, reference compound] |  |  |  |  |  |  |  | One year survival rate [6, 8]: 70.60%; Two years survival rate [6, 8]: 32.35%; Combined complete and partial remission rate ([6]; group A: chlorin e4 sodium 2 mg/kg + interstitial laser, group B: cisplatin 20 mg iv + radiotherapy): 21.30%
tri-sodium copper(II) chlorin e6 |  |  |  |  |  |  |  | Toxicity and side effects [7]: no evidence of toxicity, skin sensitization or other serious side effects
